# Literature values in paper PMC8451327, “Paradoxical Augmentation of Experimental Spondyloarthritis by RORC Inhibition in HLA-B27 Transgenic Rats” (Frontiers in Immunology, 2021).
# How the values were obtained:
# [1] = system: normal mice; design: method as in PMID 30972425
# [2] = system: intestinal inflammation; design: method as in PMID 30972425
# [3] = system: ankylosing spondylitis (AS)
# [4] = system: psoriatic arthritis (PsA)
molecule,measurement,setting,value
COc1ccc2c(n1)CCN(C(=O)C1CC(CC(=O)O)C1)[C@H]2C(=O)Nc1cc(F)c2c(c1)CCC2(C)C (some centres unmarked) [TAK-828F],Numbers of Th17 cells and ILC3s in the lamina propria,[1],did reduce
same,"Gene expression of IL17A, IL17F and IL-22",[2],suppressed/decreased
same,Intestinal inflammation,[2],suppressed
same,Th17 and Th17/Th1 cell population in mesenteric lymph nodes,[2],significantly reduced
Secukinumab: anti-IL-17A mAb,Signs and symptoms of ankylosing spondylitis,[3],reduced
same,Signs and symptoms of psoriatic arthritis,[4],reduced
ixekizumab: interleukin-17A specific monoclonal antibody,Clinical efficacy in AS,[3],proven clinical efficacy
same,Clinical efficacy in PsA,[4],proven clinical efficacy
